Source: patent US20160228575A1, “NARINGENIN COMPLEXES AND METHODS OF USE THEREOF” (THE GENERAL HOSPITAL CORPORATION, priority 2008, published 2016)

Legend:
[1] = tested on: HCV (JFH-1) secreted by infected Huh-7.5.1 cells; test: HCV secretion by JFH-1 infected Huh-7.5.1 cells (HCV core antigen ELISA, HCV positive strand RNA qPCR); type: cell-based, Hepatitis C virus
Experimental: The Huh-7.5.1 human hepatoma cell line and a plasmid containing the JFH-1 genome were kindly provided by Dr. Chisari (Scripps Research Institute, CA) and Dr. Wakita (National Institute of Infectious Diseases, Tokyo) respectively. Huh-7.5.1 cells were cultured in DMEM medium supplemented with 10% FBS, 200 units/ml penicillin and […] streptomycin in a 5% CO2-humidified incubator at 37° C. In vitro transcribed genomic JFH-1 RNA was delivered to cells by liposome-mediated transfection as described by Zhong et al. (2005)(8). Infected Huh-7.5.1 cells were passaged every 3 days and used at passage <15. The presence of HCV in these cells and corresponding supernatants were determined by quantitative Polymerase Chain Reaction (qPCR) and immunofluorescence staining. Primary human hepatocytes were purchased from BD Biosciences (San Jose, Calif.) cultured on a collagen-coated 12 well plate in C+H culture media composed of DMEM supplemented with 10% heat-inactivated FBS, 200 U/mL penicillin/streptomycin, 7.5 μg/mL hydrocortisone, 20 ng/mL EGF, 14 ng/mL glucagons and 0.5 U/mL insulin. The media was supplemented with 2% DMSO for long-term culture of the primary cells.
(§1) HCV-infected Huh-7.5.1 cells were plated on a 6-well plate at a density of 1×10^5 cells/cm^2 and cultured overnight in standard medium. Prior to the beginning of the experiment, the cells were washed 3 times with PBS and cultured with DMEM containing 5% lipoprotein-free FBS. Oleate, Insulin, Naringenin, and Brefeldin A were added at this time as described in the text. Following 24 hours of incubation, the plate was gently agitated to release mechanically bound particles, the media was collected, filtered to remove cellular debris, and stored at −80° C. for further analysis. The attached cells were washed 3 times with PBS, harvested, pelleted and stored at −80° C. for further analysis.
Huh-7.5.1 secreted HCV core antigen was detected in the media using Wako Chemicals (Cambridge, Mass.) ORTHO HCV antigen ELISA kit. Media was used as is, and the assay was carried out according to manufacturer's directions.
(§2) Virus samples collected in each experiment were filtered with a 0.45 μm filter and a volume of 100 μL for each sample was heated at 95° C. for 45 min. The reverse transcription reaction step was performed on a Mastercycler epgrdientS (Eppendorf) instrument using Omniscript and Sensiscript RT Kits (Qiagen). Real time PCR was performed on a Light Cycler LC-24 (Idaho Technology), using SuperScript™ III Platinum® CellsDirect Two-Step qRT-PCR Kits (Invitrogen) for quantitative PCR. For reverse transcription step, 2 μL of sample without RNA extraction were used. For real time PCR, 1 μL of the reverse transcription reactions was used. All reactions were performed according to the manufacturer's instructions using the primers detailed in Table 1.
However, this experiment was carried out on cells continuously producing the virus. Long-term treatment could potentially have a greater effect. […] This treatment is compared to the current standard-of-care, 1000 i.u. of Interferon α (IFNα). Both treatments lowered HCV RNA to a similar level, 96±5% and 93±5% respectively.

[2] = tested on: HCV (JFH-1) in Huh-7.5.1 cells; test: Intracellular HCV RNA and core protein in infected Huh-7.5.1 cells; type: cell-based, Hepatitis C virus
Experimental: as §1, §2
Huh-7.5.1 cells were washed 3 times with PBS and fixed in 4% EM-grade paraformaldehyde for 10 minutes at room temperature. Slides were then washed with PBS and incubated in 100 mmol/L glycine for 15 minutes to saturate reactive groups. Samples were permeabilized for 15 minutes with 0.1% Triton X-100, blocked for 30 minutes with 1% bovine serum albumin and 5% donkey serum at room temperature, and stained with primary antibodies overnight at 4° C. After additional washes with PBS, samples were stained with fluorescently tagged secondary antibodies for 45 minutes at room temperature.

[3] = 400 mg/day oral, hypercholesterolemic patients; cited from earlier work
[4] = tested on: HCV (JFH-1) infection of naïve Huh7.5.1 cells; test: HCV infectivity of cell culture supernatant on naïve Huh7.5.1 cells; type: cell-based, Hepatitis C virus
Experimental: The infectivity of the secreted HCV particles was measured as previously described (8). Naïve Huh7.5.1 cells were grown to 80% confluence and exposed to cell culture supernatants diluted 10-fold in culture media. Following 1 hour incubation at 37° C., the media was replaced, and the cells were cultured for 3 additional days. Levels of HCV infection were determined by immunofluorescence staining for HCV core protein. The viral titer is expressed as focus forming units per milliliter of supernatant (ffu/ml).

ApoB = ApoB secretion by JFH-1 infected Huh-7.5.1 cells (human ApoB ELISA); type: cell-based; conditions: 24 hours, brefeldin A 2.5 μg/ml
Experimental: as §1
Huh-7.5.1 and primary human hepatocytes secreted ApoB was detected in the media using ALerCHEK, Inc (Portland, Me.) total human ApoB ELISA kit. Media was diluted 1:10 with the specimen diluent, and the assay was carried out according to manufacturer's directions.
HCV-infected Huh-7.5.1 cells were plated T-25 tissue culture flasks at a density of 1×10^5 cells/cm^2 and cultured overnight in standard medium. Prior to silencing, the cells were washed 3 times with PBS and media was replaced with OptiMEM basal medium. SureSilencing shRNA (GFP) plasmids against human ApoB100 as well as shRNA plasmid control (500 ng/ml) were combined with lipofectamine 2000 in OptiMEM and incubated with the cells overnight. SureSilencing shRNA plasmids code for GFP which was used to sort the transfected Huh7.5.1 cells, using FACSAria (BD Biosciences) located at the Partners AIDS Research Center. Transfected cells (10% of the total population) were sorted directly into a 12-well plate and allowed to adhere overnight. Culture media was conditioned by the transfected cells for 24 hours and analyzed as described above.

[5] = 24 hours, brefeldin A 2.5 μg/ml

IFNα [reference compound]
inhibition of HCV (RNA) secretion, long-term treatment ([1]; long-term daily treatment of infected Huh7.5.1 cells, naringenin 200 μM, IFNα 1000 i.u.): 93±5%
HCV replication (intracellular HCV RNA), long-term treatment ([2]; long-term treatment, naringenin 200 μM, IFNα 1000 i.u.): inhibited

C[C@@H]1O[C@@H](O[C@H]2[C@H](Oc3cc(O)c4c(c3)O[C@H](c3ccc(O)cc3)CC4=O)O[C@H](CO)[C@@H](O)[C@@H]2O)[C@H](O)[C@H](O)[C@H]1O [naringin, reference compound]
lowering of LDL levels [3]: 17%

C[C@H]1CCC/C=C/[C@@H]2C[C@H](O)C[C@H]2[C@H](O)/C=C/C(=O)O1 [brefeldin A, reference compound]
HCV core protein secretion (in words) [1, 5]: significantly inhibits
HCV positive strand RNA secretion (in words) [1, 5]: significantly inhibits
inhibition of infectivity of the cell supernatant ([4]; supernatant after 24 hours stimulation, naringenin 200 μM, brefeldin A 2.5 μg/ml): 89%±10%
ApoB secretion (in words) (ApoB): blocked

insulin: insulin obtained from Eli-Lilly [reference compound]
HCV core protein secretion (in words) [1, 5]: downregulated
infectivity of the cell supernatant (in words) ([4]; supernatant of stimulated infected Huh-7.5.1 cells): decreased
ApoB secretion (in words) (ApoB): downregulated
intracellular levels of HCV (positive strand) RNA ([2]; 24 hours stimulation): remained unchanged
